This is an account of results in PubChem BioAssay AID624258 (Broad Institute, 2012).

The structures appear in SMILES notation. Active and inactive are the calls of the source. No rule for the calls is given here.

The assay can be described thus: SKN7 mediated toxicity in Saccharomyces cerevisiae, growth rescue counterscreen, dose confirmation (AID 624258).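 Also: growth read after three days of incubation at 30 °C; 0% = median of neutral control wells.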 Conditions: S. cerevisiae SKN7-toxicity growth rescue, plate reader.

For the compound `Nc1cc([N+](=O)[O-])ccc1O`, the growth rescue activity (at 19.5 µM (top of the series)) is -8.46% (inactive).

Regarding `Cc1cc(N2CCN(c3ccccc3)CC2)nc(-c2ccccc2O)n1`, the growth rescue activity (at 19.5 µM (top of the series)) was -42.6% (inactive).

As to `Cc1cc(C)c2sc(NNC(=O)c3ccc(S(=O)(=O)N4CCc5ccccc5C4)cc3)nc2c1`, the growth rescue activity (at 19.5 µM (top of the series)) is -31.4% (inactive).

Regarding `O=C(Nc1cccc(C(F)(F)F)c1)c1cccnc1NCCc1ccccc1`, under “at 19.5 µM (top of the series)”, the growth rescue activity was -54.3% (inactive).

With `FC(F)(F)c1cccc(N2CCc3cn[nH]c32)c1`, the growth rescue activity (at 19.5 µM (top of the series)) is -94.6% (inactive).

Turning to `O=C(c1ccc(-c2ccccc2)cc1)C1CCCN(C(=O)c2cncs2)C1` (configuration not stated), the growth rescue activity (at 19.5 µM (top of the series)) is -59.8% (inactive).

For the compound `COc1ccc(C(=O)On2c(-c3ccc(Br)cc3)nc3ccccc3c2=O)cc1`, the growth rescue activity (at 19.5 µM (top of the series)) is -5.26% (inactive).

Regarding `CN(c1ccccc1)c1nc(N2CCCC2)nc(-n2ccnc2)n1`, the growth rescue activity (at 19.5 µM (top of the series)) was -4.75% (inactive).

On to `CCCOc1ccc(S(=O)(=O)n2cc(F)c(=O)[nH]c2=O)cc1`, for which the growth rescue activity (at 19.5 µM (top of the series)) is 0% (inactive).

Consider `CCN(CC)c1ccc(/C=C/c2ccc3ccc(OC)cc3[n+]2CC)cc1`, for which, where the note is “at 19.5 µM (top of the series)”, the growth rescue activity is -52.7% (inactive).

Turning to `CCc1ccc(C(C)NC(=S)NC2CCCCC2)cc1` (configuration not stated), the growth rescue activity (at 2.1 µM (top of the series)) is -19.4% (inactive).

As to `CSC1SCC2C(=O)N(C)C(C(C)C)C(=O)OCC(NC(=O)c3cnc4ccccc4n3)C(=O)NC(C)C(=O)N(C)C1C(=O)N(C)C(C(C)C)C(=O)OCC(NC(=O)c1cnc3ccccc3n1)C(=O)NC(C)C(=O)N2C` (configuration not stated), where the note is “at 19.5 µM (top of the series)”, the growth rescue activity was 8.43% (inactive).

`O=C(c1ccccc1)N1C(=O)C(c2ccccc2)Oc2ccccc21` (configuration not stated): for the setting “at 19.5 µM (top of the series)”, the growth rescue activity was -57.4% (inactive).

On to `N#Cc1ccc(Sc2ccccn2)c([N+](=O)[O-])c1`, for which the growth rescue activity (at 19.5 µM (top of the series)) was 7.91% (inactive).

Take `COC(=O)C1=C(C)NC(C)=C(C(=O)OCC(C)C)C1c1ccccc1[N+](=O)[O-]` (configuration not stated): the growth rescue activity (at 19.5 µM (top of the series)) was -47.9% (inactive).

Take `CCC(C(=O)c1ccc2ncccc2c1)c1ccccc1` (configuration not stated): where the note is “at 19.5 µM (top of the series)”, the growth rescue activity was -32.2% (inactive).

In the case of `FC(F)(F)Oc1ccc(NC(=S)Nc2ccc(OC(F)(F)F)cc2)cc1`, the growth rescue activity (at 19.5 µM (top of the series)) is 26% (inactive).

With `COC(OC)c1ccc(C#N)c(SCc2ccccc2)n1`, where the note is “at 19.5 µM (top of the series)”, the growth rescue activity was -28.8% (inactive).

`COc1ccc(/C=N/Nc2cc(C)nc(-n3nc(C)cc3C)n2)cc1`: the growth rescue activity (at 19.5 µM (top of the series)) was -51.9% (inactive).

On to `Nc1cc2c3ccccc3ccc2c2ccccc12`, for which the growth rescue activity (at 19.5 µM (top of the series)) is -51.9% (inactive).

Consider `COc1ccc(O)c(C(=O)CC(=O)c2ccc(F)cc2)c1`, for which, for the setting “at 19.5 µM (top of the series)”, the growth rescue activity was -74.9% (inactive).

With `CCCS(=O)(=O)c1c(S(=O)(=O)CCC)c2c(C)cccn2c1C(=O)N/N=C/c1cc(O)cc(O)c1`, for the setting “at 19.5 µM (top of the series)”, the growth rescue activity was 22.5% (inactive).

With `Cc1ccsc1/C=C/c1ccc2cccc(O)c2n1`, for the setting “at 19.5 µM (top of the series)”, the growth rescue activity is -50.7% (inactive).

As to `Clc1ccc(C(Cn2ccnc2)OCc2c(Cl)cccc2Cl)c(Cl)c1` (configuration not stated), where the note is “at 19.5 µM (top of the series)”, the growth rescue activity is -69.1% (inactive).

Consider `C=CCNC(=S)N1CCC(Cc2ccccc2)CC1`, for which, under “at 19.5 µM (top of the series)”, the growth rescue activity is -41% (inactive).

On to `Cc1cccc(Oc2nc(-c3ccccn3)nc3ccccc23)c1`, for which the growth rescue activity (at 19.5 µM (top of the series)) is -67.8% (inactive).

Consider `COc1cc2c(c(OC)c1OC)-c1ccc(O)c(=O)cc1[C@@H](NC(C)=O)CC2`, for which the growth rescue activity (at 19.5 µM (top of the series)) was -29.6% (inactive).

Turning to `CCCCC(=O)NC(=S)NNC(=O)CCc1ccccc1`, the growth rescue activity (at 19.5 µM (top of the series)) was -22.9% (inactive).

Consider `CCC(C)Sc1cccc(-c2nc3ccccn3c2NCc2ccccc2)c1` (configuration not stated), for which the growth rescue activity (at 19.5 µM (top of the series)) was -90.6% (inactive).

Consider `CC1(C)C=Cc2c(ccc3c2OC[C@@H](c2ccc(O)cc2O)C3)O1`, for which, for the setting “at 19.5 µM (top of the series)”, the growth rescue activity is -92.6% (inactive).

Take `CC(C)N1CCN(c2ccc(OCC3COC(Cn4cncn4)(c4ccc(Cl)cc4Cl)O3)cc2)CC1` (configuration not stated): the growth rescue activity (at 19.5 µM (top of the series)) is -56.9% (inactive).

Turning to `O=[N+]([O-])c1ccc(S(=O)Cc2ccccc2)c([N+](=O)[O-])c1` (configuration not stated), the growth rescue activity (at 19.5 µM (top of the series)) was -45.8% (inactive).

In the case of `CC(=O)Nc1cccc(-c2cc(-c3c(Cl)cccc3Cl)no2)c1`, the growth rescue activity (at 19.5 µM (top of the series)) is -92.6% (inactive).

Regarding `CCN(CC)C(=O)CSc1ncnc2sc(-c3ccccc3)cc12`, the growth rescue activity (at 19.5 µM (top of the series)) was -25.1% (inactive).

Take `COc1ccc2[nH]c(=O)c(CN(Cc3cccnc3)C(=O)Nc3ccccc3)cc2c1`: the growth rescue activity (at 19.5 µM (top of the series)) was -61.1% (inactive).

For the compound `CCCCCOc1ccc(CSc2n[nH]c(C)n2)cc1`, the growth rescue activity (at 19.5 µM (top of the series)) is -91.3% (inactive).

For the compound `COc1cc2nc(N3CCNCC3)nc(N)c2cc1OC`, where the note is “at 6.8 µM (top of the series)”, the growth rescue activity was 5.76% (inactive).

In the case of `CCN(CC)S(=O)(=O)c1ccc(N=NC2=C(O)CC(C)(C)CC2=O)cc1`, the growth rescue activity (at 19.5 µM (top of the series)) is -10.4% (inactive).

In the case of `Oc1c(Cl)c(Cl)c(Cl)c(Cl)c1Cl`, under “at 19.5 µM (top of the series)”, the growth rescue activity is -82.9% (inactive).

In the case of `O=[N+]([O-])c1ccc2c(c1)Cc1cc(O)ccc1-2`, under “at 19.5 µM (top of the series)”, the growth rescue activity is 4.71% (inactive).

For `CCC(Oc1ccc(Br)cc1Cl)C(=O)Nc1nnc(C2CC2)s1` (configuration not stated), the growth rescue activity (at 19.5 µM (top of the series)) was -50.3% (inactive).

As for `CC1(S(=O)(=O)O)CC(=O)c2ccccc2C1=O` (configuration not stated), under “at 19.5 µM (top of the series)”, the growth rescue activity is -12.1% (inactive).
